Assays:
[1] = system: normal NK cells expanded with K562-aAPC; assay: percent inhibition of viability; higher = more inhibition; conditions: 72 h, IL-2 2.5 ng/mL
Description: (§1)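 Drug sensitivity and resistance testing on K562-aAPC-expanded normal NK cells: 5 concentrations (10-fold steps over a 10,000-fold range), 72 h at 37 °C, viability by CellTiter-Glo normalised to DMSO and benzethonium chloride controls; DSS from the fitted curve.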

DERL-7 (IL-2 2.5 ng/mL) [2] = assay: as above; conditions: 72 h
IMC-1 (IL-2 20 ng/mL) [3] = assay: as above; conditions: 72 h
KAI3 (IL-2 2.5 ng/mL) [4] = assay: as above; conditions: 72 h
KHYG-1 (IL-2 2.5 ng/mL) [5] = assay: as above; conditions: 72 h
NK-92 (IL-2 2.5 ng/mL) [6] = assay: as above; conditions: 72 h
NK-YS (IL-2 2.5 ng/mL) [7] = assay: as above; conditions: 72 h
NKL (IL-2 2.5 ng/mL) [8] = assay: as above; conditions: 72 h
SNK-6 (IL-2 2.5 ng/mL) [9] = assay: as above; conditions: 72 h
YT (IL-2 2.5 ng/mL) [10] = assay: as above; conditions: 72 h
[11] = system: normal primary NK cells, pool 1 (3 donors) (IL-2 2.5 ng/mL); assay: as above; conditions: 72 h
[12] = system: normal primary NK cells, pool 1 (3 donors), resting (IL-2 0 ng/mL); assay: as above; conditions: 72 h
[13] = system: normal primary NK cells, pool 2 (3 donors) (IL-2 2.5 ng/mL); assay: as above; conditions: 72 h
[14] = system: normal primary NK cells, pool 3 (3 donors) (IL-2 2.5 ng/mL); assay: as above; conditions: 72 h
[15] = system: normal NK cells expanded with K562-aAPC; assay: drug sensitivity score (DSS) (DSS units); higher = more sensitive; extreme values may be limits of the assay; conditions: 72 h; IL-2 2.5 ng/mL
Description: as §1

DERL-7 (IL-2 2.5 ng/mL) [16] = assay: as above; conditions: 72 h
IMC-1 (IL-2 20 ng/mL) [17] = assay: as above; conditions: 72 h
KAI3 (IL-2 2.5 ng/mL) [18] = assay: as above; conditions: 72 h
KHYG-1 (IL-2 2.5 ng/mL) [19] = assay: as above; conditions: 72 h
NK-92 (IL-2 2.5 ng/mL) [20] = assay: as above; conditions: 72 h
NK-YS (IL-2 2.5 ng/mL) [21] = assay: as above; conditions: 72 h
NKL (IL-2 2.5 ng/mL) [22] = assay: as above; conditions: 72 h
SNK-6 (IL-2 2.5 ng/mL) [23] = assay: as above; conditions: 72 h
YT (IL-2 2.5 ng/mL) [24] = assay: as above; conditions: 72 h
[25] = system: normal primary NK cells, pool 1 (3 donors) (IL-2 2.5 ng/mL); assay: as above; conditions: 72 h
[26] = system: normal primary NK cells, pool 1 (3 donors), resting (IL-2 0 ng/mL); assay: as above; conditions: 72 h
[27] = system: normal primary NK cells, pool 2 (3 donors) (IL-2 2.5 ng/mL); assay: as above; conditions: 72 h
[28] = system: normal primary NK cells, pool 3 (3 donors) (IL-2 2.5 ng/mL); assay: as above; conditions: 72 h

Cc1cc(Nc2ncc(Cl)c(Nc3ccccc3S(=O)(=O)C(C)C)n2)c(OC(C)C)cc1C1CCNCC1 [Ceritinib] (max concentration tested 2500 nM)
percent inhibition of viability [%]
Conditions | 0.25 nM | 2.5 nM | 25 nM | 250 nM | 2500 nM
DERL-7 (IL-2 2.5 ng/mL) [2] | 3.63 | 5.92 | -4.52 | 1.56 | 21.8
IMC-1 (IL-2 20 ng/mL) [3] | -2.25 | -2.84 | -3.12 | -7.73 | -4.42
KAI3 (IL-2 2.5 ng/mL) [4] | 0.47 | 4.56 | -2.83 | 3.89 | 7.4
KHYG-1 (IL-2 2.5 ng/mL) [5] | 0.86 | -4.67 | -2.14 | -5.38 | -4.91
NK-92 (IL-2 2.5 ng/mL) [6] | 7.74 | -3.66 | -9.06 | -14.7 | -17.8
NK-YS (IL-2 2.5 ng/mL) [7] | -0.73 | -3.11 | -3.16 | -7.84 | -1.32
NKL (IL-2 2.5 ng/mL) [8] | -3.75 | -12.6 | -15.7 | -9.51 | -1.79
SNK-6 (IL-2 2.5 ng/mL) [9] | 10.1 | 11.8 | 6.18 | -2.76 | -12.8
YT (IL-2 2.5 ng/mL) [10] | 2.57 | -0.77 | -0.72 | -2.37 | 3.15
[1] | -2.81 | -5.61 | -7.59 | -0.13 | -2.11
[11] | -2.74 | -3.9 | 0.34 | 4.28 | 50.2
[12] | -7.32 | -13.8 | 7.94 | 12 | 69
[13] | -8.08 | -2.52 | -12.5 | -0.57 | 15.4
[14] | -5.64 | -4.98 | -6.68 | -5.81 | 0.68

Conditions | drug sensitivity score
DERL-7 (IL-2 2.5 ng/mL) [16] | 0.92
IMC-1 (IL-2 20 ng/mL) [17] | 0.89
KAI3 (IL-2 2.5 ng/mL) [18] | 0
KHYG-1 (IL-2 2.5 ng/mL) [19] | 0
NK-92 (IL-2 2.5 ng/mL) [20] | 0
NK-YS (IL-2 2.5 ng/mL) [21] | 0.89
NKL (IL-2 2.5 ng/mL) [22] | 0.89
SNK-6 (IL-2 2.5 ng/mL) [23] | 0
YT (IL-2 2.5 ng/mL) [24] | 0
[15] | 0.89
[25] | 3.33
[26] | 5.8
[27] | 0.23
[28] | 0

C[C@@H](Oc1cc(-c2cnn(C3CCNCC3)c2)cnc1N)c1c(Cl)ccc(F)c1Cl [Crizotinib] (max concentration tested 1000 nM)
percent inhibition of viability [%]
Conditions | 0.1 nM | 1 nM | 10 nM | 100 nM | 1000 nM
DERL-7 (IL-2 2.5 ng/mL) [2] | -0.63 | 5.41 | -1.8 | -2.42 | 25.2
IMC-1 (IL-2 20 ng/mL) [3] | -4.84 | -8.42 | -0.95 | 5.13 | 7.41
KAI3 (IL-2 2.5 ng/mL) [4] | -4.43 | -13.2 | -10.6 | -0.67 | 30.1
KHYG-1 (IL-2 2.5 ng/mL) [5] | -1.4 | -6.18 | 0.71 | 2.28 | 20.6
NK-92 (IL-2 2.5 ng/mL) [6] | -12.7 | 0.5 | -4.15 | 16.4 | 34.7
NK-YS (IL-2 2.5 ng/mL) [7] | -6.03 | -14.8 | -8.66 | -7.59 | 15.5
NKL (IL-2 2.5 ng/mL) [8] | -3.16 | -3.23 | -5.42 | 9.67 | 43.3
SNK-6 (IL-2 2.5 ng/mL) [9] | -16.1 | -28 | -15 | -17.9 | -4.35
YT (IL-2 2.5 ng/mL) [10] | -0.11 | -5.24 | -1.87 | 2.08 | 25.1
[1] | -7.86 | -6.31 | -9.93 | -2.46 | 19.7
[11] | -4.24 | -0.87 | 8.61 | 7.22 | 32.6
[12] | -6.8 | -15.6 | -1.32 | 0.53 | 39.1
[13] | -7.13 | -11.6 | -1.57 | -2.22 | 20.3
[14] | -11.7 | -8.52 | 6.99 | -0.76 | 18

Conditions | drug sensitivity score
DERL-7 (IL-2 2.5 ng/mL) [16] | 0.81
IMC-1 (IL-2 20 ng/mL) [17] | 0
KAI3 (IL-2 2.5 ng/mL) [18] | 1.25
KHYG-1 (IL-2 2.5 ng/mL) [19] | 0.95
NK-92 (IL-2 2.5 ng/mL) [20] | 3.72
NK-YS (IL-2 2.5 ng/mL) [21] | 0.12
NKL (IL-2 2.5 ng/mL) [22] | 3.75
SNK-6 (IL-2 2.5 ng/mL) [23] | 0
YT (IL-2 2.5 ng/mL) [24] | 1.25
[15] | 0.44
[25] | 2.41
[26] | 1.99
[27] | 0.49
[28] | 0.4
